Test results taken from ChEMBL document CHEMBL1201862, “PubChem BioAssay data set” (2004).
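Briefly, cells in 96-well plates were exposed to five compound concentrations for 48 h, and endpoints were estimated by linear interpolation. GI50 = concentration required for 50% inhibition of growth.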 The source made the active and inactive calls. No stated cut-off is given here; in the data, active = GI50 up to about 1.1 µM and inactive = higher.

How the values were obtained:
Experiment in all cases: DTP human tumour cell line panel, 48 h
EKVX = tested on: EKVX
LXFL 529 = tested on: LXFL 529
SNB-78 = tested on: SNB-78
MOLT-4 = tested on: MOLT-4
SF-268 = tested on: SF-268
A498 = tested on: A498
NCI-H226 = tested on: NCI-H226
UACC-62 = tested on: UACC-62
TK-10 = tested on: TK-10
U-251 = tested on: U-251
DMS-273 = tested on: DMS-273
HCC 2998 = tested on: HCC 2998
HCT-116 = tested on: HCT-116
SF-295 = tested on: SF-295
786-0 = tested on: 786-0
XF498 = tested on: XF498
M19-MEL = tested on: M19-MEL
OVCAR-8 = tested on: OVCAR-8
SW-620 = tested on: SW-620
SF-539 = tested on: SF-539
KM12 = tested on: KM12
HOP-18 = tested on: HOP-18
UO-31 = tested on: UO-31
SK-MEL-5 = tested on: SK-MEL-5
HCT-15 = tested on: HCT-15
OVCAR-5 = tested on: OVCAR-5
HOP-62 = tested on: HOP-62
IGROV-1 = tested on: IGROV-1
RPMI-8226 = tested on: RPMI-8226
KM-20L2 = tested on: KM-20L2
DLD-1 = tested on: DLD-1
OVCAR-4 = tested on: OVCAR-4
RXF 393 = tested on: RXF 393
NCI-H23 = tested on: NCI-H23
COLO 205 = tested on: COLO 205
LOX IMVI = tested on: LOX IMVI
SNB-19 = tested on: SNB-19
SNB-75 = tested on: SNB-75
A549 = tested on: A549
DMS-114 = tested on: DMS-114
HT-29 = tested on: HT-29
SK-MEL-2 = tested on: SK-MEL-2
UACC-257 = tested on: UACC-257
SK-MEL-28 = tested on: SK-MEL-28
M14 = tested on: M14
OVCAR-3 = tested on: OVCAR-3
K562 = tested on: K562
SK-OV-3 = tested on: SK-OV-3
HL-60 = tested on: HL-60
NCI-H460 = tested on: NCI-H460
HOP-92 = tested on: HOP-92
Malme-3M = tested on: Malme-3M
CAKI-1 = tested on: CAKI-1
ACHN = tested on: ACHN
CCRF-CEM = tested on: CCRF-CEM
SN12C = tested on: SN12C
SR = tested on: SR
NCI-H522 = tested on: NCI-H522

## O=C(NNc1ccc([N+](=O)[O-])cc1)C1OC(CO)C(O)C1O (stereo not given)
EKVX
  GI50: > 100 µM (inactive)
LXFL 529
  GI50: 38.3 µM (inactive)
SNB-78
  GI50: > 100 µM (inactive)
MOLT-4
  GI50: > 100 µM (inactive)
SF-268
  GI50: > 100 µM (inactive)
A498
  GI50: > 100 µM (inactive)
NCI-H226
  GI50: > 100 µM (inactive)
UACC-62
  GI50: > 100 µM (inactive)
TK-10
  GI50: > 100 µM (inactive)
U-251
  GI50: > 100 µM (inactive)
DMS-273
  GI50: > 100 µM (inactive)
HCC 2998
  GI50: > 100 µM (inactive)
HCT-116
  GI50: > 100 µM (inactive)
SF-295
  GI50: > 100 µM (inactive)
786-0
  GI50: 26.4 µM (inactive)
XF498
  GI50: > 100 µM (inactive)
M19-MEL
  GI50: > 100 µM (inactive)
OVCAR-8
  GI50: > 100 µM (inactive)
SW-620
  GI50: 21.8 µM (inactive)
SF-539
  GI50: > 100 µM (inactive)
KM12
  GI50: 81.8 µM (inactive)
HOP-18
  GI50: > 100 µM (inactive)
UO-31
  GI50: > 100 µM (inactive)
SK-MEL-5
  GI50: > 100 µM (inactive)
HCT-15
  GI50: 54.8 µM
OVCAR-5
  GI50: > 100 µM (inactive)
HOP-62
  GI50: > 100 µM (inactive)
IGROV-1
  GI50: > 100 µM (inactive)
RPMI-8226
  GI50: 30.5 µM (inactive)
KM-20L2
  GI50: > 100 µM (inactive)
DLD-1
  GI50: 47.1 µM (inactive)
OVCAR-4
  GI50: > 100 µM (inactive)
RXF 393
  GI50: > 100 µM (inactive)
NCI-H23
  GI50: > 100 µM (inactive)
COLO 205
  GI50: > 100 µM (inactive)
LOX IMVI
  GI50: > 100 µM (inactive)
SNB-19
  GI50: > 100 µM (inactive)
SNB-75
  GI50: > 100 µM (inactive)
A549
  GI50: > 100 µM (inactive)
DMS-114
  GI50: > 100 µM (inactive)
HT-29
  GI50: 59.8 µM (inactive)
SK-MEL-2
  GI50: > 100 µM (inactive)
UACC-257
  GI50: > 100 µM (inactive)
SK-MEL-28
  GI50: > 100 µM (inactive)
M14
  GI50: > 100 µM (inactive)
OVCAR-3
  GI50: > 100 µM (inactive)
K562
  GI50: 67 µM (inactive)
SK-OV-3
  GI50: > 100 µM (inactive)
HL-60
  GI50: 58.9 µM (inactive)
NCI-H460
  GI50: > 100 µM (inactive)
HOP-92
  GI50: > 100 µM (inactive)
Malme-3M
  GI50: > 100 µM (inactive)
CAKI-1
  GI50: > 100 µM (inactive)
ACHN
  GI50: > 100 µM (inactive)
CCRF-CEM
  GI50: 43.7 µM (inactive)
SN12C
  GI50: > 100 µM (inactive)

## [N-]=[N+]=NC(CI)c1cn([C@H]2C[C@H](O)[C@@H](CO)O2)c(=O)[nH]c1=O (stereo not given in full)
EKVX
  GI50: > 100 µM (inactive)
LXFL 529
  GI50: > 100 µM (inactive)
SNB-78
  GI50: > 100 µM (inactive)
MOLT-4
  GI50: > 100 µM (inactive)
SR
  GI50: > 100 µM (inactive)
NCI-H226
  GI50: > 100 µM (inactive)
UACC-62
  GI50: > 100 µM (inactive)
TK-10
  GI50: > 100 µM (inactive)
U-251
  GI50: > 100 µM (inactive)
DMS-273
  GI50: > 100 µM (inactive)
HCC 2998
  GI50: 85.1 µM (inactive)
HCT-116
  GI50: > 100 µM (inactive)
SF-295
  GI50: > 100 µM (inactive)
786-0
  GI50: 63.2 µM (inactive)
XF498
  GI50: 80.2 µM (inactive)
M19-MEL
  GI50: > 100 µM (inactive)
OVCAR-8
  GI50: > 100 µM (inactive)
SW-620
  GI50: > 100 µM (inactive)
SF-539
  GI50: > 100 µM (inactive)
KM12
  GI50: > 100 µM (inactive)
HOP-18
  GI50: 2.92 µM (inactive)
UO-31
  GI50: > 100 µM (inactive)
SK-MEL-5
  GI50: > 100 µM (inactive)
HCT-15
  GI50: > 100 µM
OVCAR-5
  GI50: > 100 µM (inactive)
HOP-62
  GI50: > 100 µM (inactive)
IGROV-1
  GI50: > 100 µM (inactive)
RPMI-8226
  GI50: 51.5 µM (inactive)
KM-20L2
  GI50: > 100 µM (inactive)
DLD-1
  GI50: > 100 µM (inactive)
RXF 393
  GI50: > 100 µM (inactive)
NCI-H23
  GI50: 90.4 µM (inactive)
COLO 205
  GI50: > 100 µM (inactive)
NCI-H522
  GI50: > 100 µM (inactive)
LOX IMVI
  GI50: > 100 µM (inactive)
SNB-19
  GI50: > 100 µM (inactive)
SNB-75
  GI50: > 100 µM (inactive)
A549
  GI50: 41.5 µM (inactive)
DMS-114
  GI50: 56 µM (inactive)
HT-29
  GI50: > 100 µM (inactive)
SK-MEL-2
  GI50: > 100 µM (inactive)
SK-MEL-28
  GI50: > 100 µM (inactive)
M14
  GI50: > 100 µM (inactive)
OVCAR-3
  GI50: > 100 µM (inactive)
K562
  GI50: 83.9 µM (inactive)
SK-OV-3
  GI50: > 100 µM (inactive)
HL-60
  GI50: 54.1 µM (inactive)
NCI-H460
  GI50: 29.8 µM (inactive)
HOP-92
  GI50: > 100 µM (inactive)
Malme-3M
  GI50: > 100 µM (inactive)
CAKI-1
  GI50: > 100 µM (inactive)
ACHN
  GI50: > 100 µM (inactive)
CCRF-CEM
  GI50: > 100 µM (inactive)
SN12C
  GI50: > 100 µM (inactive)
